# Values of other authors as cited in patent US20240165002A1, “Compositions Incorporating Avobenzone Complexes” (University of Cincinnati, priority 2022, published 2024).
# Columns and labels:
# [1] = at 360 nm
smiles,measurement,setting,value
"COc1ccc(C(=O)CC(=O)c2ccc(C(C)(C)C)cc2)cc1 [Avobenzone, 1-(4-methoxyphenyl)-3-(4-tertbutylphenyl)-propane-1,3-dione]",molar absorption coefficient,[1],"33,756 L/(mol·cm)"
same,duration of photoprotection once exposed to sun,once exposed to sun,30 min
same,photostability,"upon exposure to light, keto-enol tautomerization",poor photostability
